Measured values: PubChem BioAssay (NCI)
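The concentration for 50% growth inhibition is given as GI50. TGI is the concentration that stops growth completely.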

Columns and labels:
Experiment in all cases: DTP human tumour cell line panel, 384-well format
786-0 renal = tested on: 786-0 renal
NCI/ADR-RES ovarian = tested on: NCI/ADR-RES ovarian
HCT-15 colon = tested on: HCT-15 colon
U251 glioblastoma = tested on: U251 glioblastoma
UACC-257 melanoma = tested on: UACC-257 melanoma
SK-MEL-2 melanoma = tested on: SK-MEL-2 melanoma
NCI-H322M lung = tested on: NCI-H322M lung
HCT-116 colon = tested on: HCT-116 colon
SR leukemia = tested on: SR leukemia
HOP-62 NSCLC = tested on: HOP-62 NSCLC
MDA-MB-435 melanoma = tested on: MDA-MB-435 melanoma
LOX IMVI melanoma = tested on: LOX IMVI melanoma
HCC-2998 colon = tested on: HCC-2998 colon
SN12C renal = tested on: SN12C renal
A549 NSCLC = tested on: A549 NSCLC
MOLT-4 leukemia = tested on: MOLT-4 leukemia
OVCAR-4 ovarian = tested on: OVCAR-4 ovarian
DU-145 prostate = tested on: DU-145 prostate
MDA-MB-468 breast = tested on: MDA-MB-468 breast
HS 578T breast = tested on: HS 578T breast
A498 renal = tested on: A498 renal
SW-620 colon = tested on: SW-620 colon
MCF7 breast = tested on: MCF7 breast
OVCAR-8 ovarian = tested on: OVCAR-8 ovarian
OVCAR-3 ovarian = tested on: OVCAR-3 ovarian
SK-OV-3 ovarian = tested on: SK-OV-3 ovarian
SK-MEL-28 melanoma = tested on: SK-MEL-28 melanoma
CAKI-1 renal = tested on: CAKI-1 renal
NCI-H23 lung = tested on: NCI-H23 lung
M14 melanoma = tested on: M14 melanoma
CCRF-CEM leukemia = tested on: CCRF-CEM leukemia
PC-3 prostate = tested on: PC-3 prostate
SK-MEL-5 melanoma = tested on: SK-MEL-5 melanoma
OVCAR-5 ovarian = tested on: OVCAR-5 ovarian
SF-539 CNS = tested on: SF-539 CNS
COLO 205 colon = tested on: COLO 205 colon
IGROV1 ovarian = tested on: IGROV1 ovarian
BT-549 breast = tested on: BT-549 breast
NCI-H460 NSCLC = tested on: NCI-H460 NSCLC
NCI-H522 lung = tested on: NCI-H522 lung
EKVX NSCLC = tested on: EKVX NSCLC
RXF 393 renal = tested on: RXF 393 renal
HL-60(TB) leukemia = tested on: HL-60(TB) leukemia
MDA-MB-231 breast = tested on: MDA-MB-231 breast
ACHN renal = tested on: ACHN renal
SF-268 CNS = tested on: SF-268 CNS
UO-31 renal = tested on: UO-31 renal

## N#CCC1(n2cc(-c3ncnc4[nH]ccc34)cn2)CN(C2CCN(C(=O)c3ccnc(C(F)(F)F)c3F)CC2)C1
786-0 renal
  GI50: > 96.4 µM
  TGI: > 100 µM
NCI/ADR-RES ovarian
  GI50: > 100 µM
  TGI: > 100 µM
HCT-15 colon
  GI50: > 78.9 µM
  TGI: > 100 µM
U251 glioblastoma
  GI50: > 100 µM
  TGI: > 100 µM
UACC-257 melanoma
  GI50: > 81.8 µM
  TGI: > 100 µM
SK-MEL-2 melanoma
  GI50: > 100 µM
  TGI: > 100 µM
NCI-H322M lung
  GI50: > 100 µM
  TGI: > 100 µM
HCT-116 colon
  GI50: > 79.5 µM
  TGI: > 100 µM
SR leukemia
  GI50: 23.9 µM
  TGI: 39.4 µM
HOP-62 NSCLC
  GI50: > 68.2 µM
  TGI: > 100 µM
MDA-MB-435 melanoma
  GI50: > 100 µM
  TGI: > 100 µM
LOX IMVI melanoma
  GI50: > 100 µM
  TGI: > 100 µM
HCC-2998 colon
  GI50: > 100 µM
  TGI: > 100 µM
SN12C renal
  GI50: 83.1 µM
  TGI: > 100 µM
A549 NSCLC
  GI50: > 61.3 µM
  TGI: > 100 µM
MOLT-4 leukemia
  GI50: 16.8 µM
  TGI: 35.4 µM
OVCAR-4 ovarian
  GI50: > 100 µM
  TGI: > 100 µM
DU-145 prostate
  GI50: 97.1 µM
  TGI: > 100 µM
MDA-MB-468 breast
  GI50: 17.6 µM
  TGI: 50.5 µM
HS 578T breast
  GI50: 30.9 µM
  TGI: 92.9 µM
A498 renal
  GI50: > 100 µM
  TGI: > 100 µM
SW-620 colon
  GI50: > 61.1 µM
  TGI: > 100 µM
MCF7 breast
  GI50: > 71.8 µM
  TGI: > 100 µM
OVCAR-8 ovarian
  GI50: > 100 µM
  TGI: > 100 µM
OVCAR-3 ovarian
  GI50: > 71.5 µM
  TGI: > 100 µM
SK-OV-3 ovarian
  GI50: > 73.7 µM
  TGI: > 100 µM
SK-MEL-28 melanoma
  GI50: > 100 µM
  TGI: > 100 µM
CAKI-1 renal
  GI50: > 84.9 µM
  TGI: > 100 µM
NCI-H23 lung
  GI50: 31.7 µM
  TGI: > 100 µM
M14 melanoma
  GI50: > 88.6 µM
  TGI: > 100 µM
CCRF-CEM leukemia
  GI50: 20.6 µM
  TGI: 44.9 µM
PC-3 prostate
  GI50: > 100 µM
  TGI: > 100 µM
SK-MEL-5 melanoma
  GI50: > 41.9 µM
  TGI: > 70.7 µM
OVCAR-5 ovarian
  GI50: > 100 µM
  TGI: > 100 µM
SF-539 CNS
  GI50: > 76.2 µM
  TGI: > 100 µM
COLO 205 colon
  GI50: 28.5 µM
  TGI: 70.6 µM
IGROV1 ovarian
  GI50: > 76 µM
  TGI: > 100 µM
BT-549 breast
  GI50: 50.4 µM
  TGI: > 100 µM
NCI-H460 NSCLC
  GI50: 49.6 µM
  TGI: > 100 µM
NCI-H522 lung
  GI50: 18.4 µM
  TGI: 39.2 µM
EKVX NSCLC
  GI50: > 70 µM
  TGI: > 100 µM
RXF 393 renal
  GI50: 58.3 µM
  TGI: > 100 µM
HL-60(TB) leukemia
  GI50: > 62 µM
  TGI: 97.7 µM
MDA-MB-231 breast
  GI50: 45.8 µM
  TGI: > 100 µM
ACHN renal
  GI50: > 64.7 µM
  TGI: > 100 µM
SF-268 CNS
  GI50: > 39.8 µM
  TGI: > 69.3 µM
UO-31 renal
  GI50: 72.5 µM
  TGI: > 100 µM

## CNCc1ccc(-c2[nH]c3cc(F)cc4c3c2CCNC4=O)cc1
786-0 renal
  GI50: 7.97 µM
  TGI: 21.3 µM
NCI/ADR-RES ovarian
  GI50: 38.7 µM
  TGI: > 92.6 µM
HCT-15 colon
  GI50: 15.1 µM
  TGI: 31.1 µM
U251 glioblastoma
  GI50: 14.4 µM
  TGI: 32.5 µM
UACC-257 melanoma
  GI50: 12.8 µM
  TGI: 26.4 µM
SK-MEL-2 melanoma
  GI50: 11.9 µM
  TGI: 24.3 µM
NCI-H322M lung
  GI50: 17.2 µM
  TGI: 32.4 µM
HCT-116 colon
  GI50: 6.6 µM
  TGI: 19.4 µM
SR leukemia
  GI50: 1.54 µM
  TGI: 3.93 µM
HOP-62 NSCLC
  GI50: 9.39 µM
  TGI: 23.4 µM
MDA-MB-435 melanoma
  GI50: 19 µM
  TGI: 34.2 µM
LOX IMVI melanoma
  GI50: 13 µM
  TGI: 26 µM
HCC-2998 colon
  GI50: 11.3 µM
  TGI: 23.8 µM
SN12C renal
  GI50: 14.9 µM
  TGI: 31 µM
A549 NSCLC
  GI50: 14.7 µM
  TGI: 29.5 µM
MOLT-4 leukemia
  GI50: 2.17 µM
  TGI: 5.64 µM
OVCAR-4 ovarian
  GI50: 21 µM
  TGI: 38.2 µM
DU-145 prostate
  GI50: 13.9 µM
  TGI: 27.4 µM
MDA-MB-468 breast
  GI50: 4.13 µM
  TGI: 11.5 µM
HS 578T breast
  GI50: 10.4 µM
  TGI: 22.4 µM
A498 renal
  GI50: 15.7 µM
  TGI: 29.3 µM
SW-620 colon
  GI50: 7.46 µM
  TGI: 23.6 µM
MCF7 breast
  GI50: 6.36 µM
  TGI: 18.7 µM
OVCAR-8 ovarian
  GI50: 10.4 µM
  TGI: 23.7 µM
OVCAR-3 ovarian
  GI50: 16 µM
  TGI: 31 µM
SK-OV-3 ovarian
  GI50: 20.6 µM
  TGI: 45.3 µM
SK-MEL-28 melanoma
  GI50: 15.2 µM
  TGI: 28.8 µM
CAKI-1 renal
  GI50: 7.56 µM
  TGI: 19.8 µM
NCI-H23 lung
  GI50: 12.1 µM
  TGI: 24.8 µM
M14 melanoma
  GI50: 14.7 µM
  TGI: 28 µM
CCRF-CEM leukemia
  GI50: 3.68 µM
  TGI: 13.1 µM
PC-3 prostate
  GI50: 16.1 µM
  TGI: 38 µM
SK-MEL-5 melanoma
  GI50: 6.05 µM
  TGI: 12.1 µM
OVCAR-5 ovarian
  GI50: 15.8 µM
  TGI: 38.9 µM
SF-539 CNS
  GI50: 12.4 µM
  TGI: 25.1 µM
COLO 205 colon
  GI50: 9.97 µM
  TGI: 23.1 µM
IGROV1 ovarian
  GI50: 10.4 µM
  TGI: 25.4 µM
BT-549 breast
  GI50: 11.8 µM
  TGI: 24.2 µM
NCI-H460 NSCLC
  GI50: 6.31 µM
  TGI: 19.6 µM
NCI-H522 lung
  GI50: 15.6 µM
  TGI: 29.3 µM
EKVX NSCLC
  GI50: 16.1 µM
  TGI: 30.9 µM
RXF 393 renal
  GI50: 10.6 µM
  TGI: 23.8 µM
HL-60(TB) leukemia
  GI50: 8.28 µM
  TGI: 19.1 µM
MDA-MB-231 breast
  GI50: 8.58 µM
  TGI: 21.8 µM
ACHN renal
  GI50: 11.5 µM
  TGI: 28.6 µM
SF-268 CNS
  GI50: 14.1 µM
  TGI: 29.1 µM
UO-31 renal
  GI50: 12.1 µM
  TGI: 28.5 µM
